Source: ChEMBL document CHEMBL1156272, “Discovery and SAR of novel pyrazole-based thioethers as cathepsin S inhibitors. Part 2: Modification of P3, P4, and P5 regions” (Bioorg Med Chem Lett, 2010)

Legend:
Cathepsin S [1] = target: T1, Cathepsin S (Homo sapiens, UniProt P25774); experiment: Inhibition of human cathepsin S by ADAM-28 substrate-based fluorescence assay
Cathepsin S [2] = target: T1, Cathepsin S; experiment: Inhibition of cathepsin S in human JY cells assessed as accumulation of invariant chain p10 fragment after 24 hrs by Western blot analysis; assay type: cell-based
[3] = target: Voltage-gated inwardly rectifying potassium channel KCNH2 (Homo sapiens, UniProt Q12809); experiment: Inhibition of human ERG by astemizole binding assay
Sequence of Voltage-gated inwardly rectifying potassium channel KCNH2 (Q12809 whole entry): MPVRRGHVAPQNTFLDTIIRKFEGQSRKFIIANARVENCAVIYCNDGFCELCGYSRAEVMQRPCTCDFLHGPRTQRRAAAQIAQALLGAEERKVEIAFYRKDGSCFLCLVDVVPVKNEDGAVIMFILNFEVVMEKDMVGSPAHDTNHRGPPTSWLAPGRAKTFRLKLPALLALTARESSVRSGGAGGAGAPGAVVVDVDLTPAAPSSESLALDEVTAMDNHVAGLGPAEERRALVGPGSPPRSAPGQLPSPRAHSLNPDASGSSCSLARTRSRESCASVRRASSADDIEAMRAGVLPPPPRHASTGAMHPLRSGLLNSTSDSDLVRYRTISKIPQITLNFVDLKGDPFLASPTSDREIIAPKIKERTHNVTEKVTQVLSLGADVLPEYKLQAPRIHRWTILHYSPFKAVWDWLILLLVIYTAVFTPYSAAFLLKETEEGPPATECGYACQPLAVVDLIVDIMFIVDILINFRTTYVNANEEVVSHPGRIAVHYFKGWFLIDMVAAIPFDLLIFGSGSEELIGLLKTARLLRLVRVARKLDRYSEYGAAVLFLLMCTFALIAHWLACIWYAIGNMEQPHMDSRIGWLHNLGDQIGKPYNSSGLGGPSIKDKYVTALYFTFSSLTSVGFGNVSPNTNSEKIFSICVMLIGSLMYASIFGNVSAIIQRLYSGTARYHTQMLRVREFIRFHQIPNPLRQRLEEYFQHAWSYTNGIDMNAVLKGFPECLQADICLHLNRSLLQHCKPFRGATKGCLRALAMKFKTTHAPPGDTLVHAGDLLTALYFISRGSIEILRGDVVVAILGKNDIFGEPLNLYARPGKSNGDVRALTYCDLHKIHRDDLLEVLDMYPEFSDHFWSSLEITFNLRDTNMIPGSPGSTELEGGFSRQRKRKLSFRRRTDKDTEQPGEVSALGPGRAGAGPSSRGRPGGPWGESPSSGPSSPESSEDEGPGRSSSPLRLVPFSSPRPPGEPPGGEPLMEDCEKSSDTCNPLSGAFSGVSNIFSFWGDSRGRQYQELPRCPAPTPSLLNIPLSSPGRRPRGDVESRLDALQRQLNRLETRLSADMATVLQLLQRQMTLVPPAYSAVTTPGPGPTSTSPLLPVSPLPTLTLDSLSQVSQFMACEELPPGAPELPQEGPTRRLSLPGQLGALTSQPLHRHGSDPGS

T1 sequence (P25774 whole entry, the tested form may be a part): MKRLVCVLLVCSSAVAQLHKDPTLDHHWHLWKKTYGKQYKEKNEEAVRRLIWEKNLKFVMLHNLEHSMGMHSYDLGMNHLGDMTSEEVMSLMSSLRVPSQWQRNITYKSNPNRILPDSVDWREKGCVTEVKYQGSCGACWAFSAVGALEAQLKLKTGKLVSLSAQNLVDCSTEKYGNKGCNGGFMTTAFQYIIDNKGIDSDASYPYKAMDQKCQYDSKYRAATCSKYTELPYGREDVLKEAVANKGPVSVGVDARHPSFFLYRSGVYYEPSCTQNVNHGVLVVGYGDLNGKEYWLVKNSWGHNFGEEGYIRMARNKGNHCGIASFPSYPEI

IC50 (Cathepsin S [1]) [nM] | IC50 (Cathepsin S [2]) [nM] | SMILES | inhibition (INH) [3]
595 | – | CCCNCC(O)Cn1nc(-c2ccc(C(F)(F)F)c(SCCN3CCCCC3)c2)c2c1CCN(S(C)(=O)=O)C2 (racemic) | –
385 | – | CC(=O)N1CCc2c(c(-c3ccc(C(F)(F)F)c(SCCN4CCC(F)CC4)c3)nn2C[C@@H](O)CN2CCCCC2)C1 | –
– | 152 | CS(=O)(=O)N1CCc2c(c(-c3ccc(C(F)(F)F)c(SCCN4CCCCC4)c3)nn2CC(O)CN2CCC(N3CCCC3=O)CC2)C1 (racemic) | –
10 | 160 | CS(=O)(=O)N1CCc2c(c(-c3ccc(C(F)(F)F)c(SCCN4CCCCC4)c3)nn2CC(O)CN2CCC(c3ccccc3C#N)CC2)C1 (racemic) | Active
420 | 2520 | CS(=O)(=O)N1CCc2c(c(-c3ccc(C(F)(F)F)c(SCCN4CCOCC4)c3)nn2CC(O)CN2CCCCC2)C1 (racemic) | –
70 | 190 | NC(=O)C(=O)N1CCc2c(c(-c3ccc(C(F)(F)F)c(SCCN4CCC(F)CC4)c3)nn2C[C@@H](O)CN2CCCCC2)C1 | –
– | 96 | CS(=O)(=O)N1CCc2c(c(-c3ccc(C(F)(F)F)c(SCCN4CCCCC4)c3)nn2CC(O)CN2CCC(C(=O)N3CCCC3)CC2)C1 (racemic) | –
– | 458 | CS(=O)(=O)N1CCc2c(c(-c3ccc(C(F)(F)F)c(SCCN4CCCC4)c3)nn2CC(O)CN2CCCCC2)C1 (racemic) | –
9600 | – | OC(CN1CCCCC1)Cn1nc(-c2ccc(C(F)(F)F)c(SCCN3CCC(F)CC3)c2)c2c1CCNC2 (stereo unspecified) | –
245 | – | CC(O)C(=O)N1CCc2c(c(-c3ccc(C(F)(F)F)c(SCCN4CCC(F)CC4)c3)nn2C[C@@H](O)CN2CCCCC2)C1 (stereo partly specified) | –
235 | – | O=C(CO)N1CCc2c(c(-c3ccc(C(F)(F)F)c(SCCN4CCC(F)CC4)c3)nn2C[C@@H](O)CN2CCCCC2)C1 | –
– | 62 | CS(=O)(=O)N1CCc2c(c(-c3ccc(C(F)(F)F)c(SCCN4CCCCC4)c3)nn2CC(O)CN2CCC(c3ccccn3)CC2)C1 (racemic) | Active
– | 493 | CS(=O)(=O)N1CCc2c(c(-c3ccc(C(F)(F)F)c(SCCN4CCC(F)CC4)c3)nn2CC(O)CN2CCCCC2)C1 (racemic) | –
218 | 81 | CS(=O)(=O)N1CCc2c(c(-c3ccc(C(F)(F)F)c(SCCN4CCCCC4)c3)nn2CC(O)CN2CCC(C3CCCC3)CC2)C1 (racemic) | –

Continued, molecule first:

SMILES | IC50 (Cathepsin S [1]) [nM] | IC50 (Cathepsin S [2]) [nM] | inhibition (INH) [3]
CS(=O)(=O)N1CCc2c(c(-c3ccc(C(F)(F)F)c(SCCN4CCCCC4)c3)nn2CC(O)CN2CCN(C3CC3)CC2)C1 (racemic) | – | 220 | –
CS(=O)(=O)N1CCc2c(c(-c3ccc(C(F)(F)F)c(SCCN4CCC(F)CC4)c3)nn2C[C@H](O)CN2CCCCC2)C1 | 395 | 810 | –
NC(=O)N1CCc2c(c(-c3ccc(C(F)(F)F)c(SCCN4CCC(F)CC4)c3)nn2C[C@@H](O)CN2CCCCC2)C1 | 235 | – | –
CS(=O)(=O)N1CCc2c(c(-c3ccc(C(F)(F)F)c(SCCN)c3)nn2CC(O)CN2CCCCC2)C1 (racemic) | 1130 | – | –
CS(=O)(=O)N1CCc2c(c(-c3ccc(C(F)(F)F)c(SCCN4CCCCC4)c3)nn2CC(O)CN2CCOCC2)C1 (racemic) | 325 | 889 | –
CS(=O)(=O)N1CCc2c(c(-c3ccc(C(F)(F)F)c(SCCN4CCCCC4)c3)nn2CC(O)CN2CCCC2)C1 (racemic) | 335 | 401 | –
CS(=O)(=O)N1CCc2c(c(-c3ccc(C(F)(F)F)c(SCCN4CCCCC4)c3)nn2CC(O)CN2CCCCC2)C1 (racemic) | 204 | 335 | –
O=C(c1cccs1)N1CCc2c(c(-c3ccc(C(F)(F)F)c(SCCN4CCC(F)CC4)c3)nn2C[C@@H](O)CN2CCCCC2)C1 | 355 | – | –
O=C(c1nc[nH]n1)N1CCc2c(c(-c3ccc(C(F)(F)F)c(SCCN4CCC(F)CC4)c3)nn2C[C@@H](O)CN2CCCCC2)C1 | 205 | 320 | –
CS(=O)(=O)N1CCc2c(c(-c3ccc(C(F)(F)F)c(SCCN4CCC(F)CC4)c3)nn2C[C@@H](O)CN2CCCCC2)C1 | 58 | 120 | –
